Measurements taken from PubChem BioAssay AID1963848 (Molecular Pharmacology Branch, DTP, NCI, 2024).

System: 379773-124-R-J2-PDC spheroid viability
Assay: Anticancer human tumor 379773-124-R-J2-PDC patient-derived endometrial carcinoma cell line growth inhibition [POLQ]
Conditions: spheroids with HUVEC and MSC; for IC50: curve of first compound; for viability, T/C: stronger effect = lower value; active = viability on the fitted dose curve at most 10% of control; inactive = the rest
Method in brief: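 Three-cell-type spheroids modelling solid tumor plus stroma served as the readout system; POL inhibitors were tested individually and in combination, concentration ranges set by clinical Cmax where known.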

[1] = second compound 0.0316 µM, first compound 0.0316 µM
[2] = second compound 0.0316 µM, first compound 0.1 µM
[3] = second compound 0.0316 µM, first compound 0.316 µM
[4] = second compound 0.0316 µM, first compound 1 µM
[5] = second compound 0.0316 µM, first compound 3.16 µM
[6] = second compound 0.0316 µM, first compound 10 µM
[7] = second compound 0.1 µM, first compound 0.0316 µM
[8] = second compound 0.1 µM, first compound 0.1 µM
[9] = second compound 0.1 µM, first compound 0.316 µM
[10] = second compound 0.1 µM, first compound 1 µM
[11] = second compound 0.1 µM, first compound 3.16 µM
[12] = second compound 0.1 µM, first compound 10 µM
[13] = second compound 0.316 µM, first compound 0.0316 µM
[14] = second compound 0.316 µM, first compound 0.1 µM
[15] = second compound 0.316 µM, first compound 0.316 µM
[16] = second compound 0.316 µM, first compound 1 µM
[17] = second compound 0.316 µM, first compound 3.16 µM
[18] = second compound 0.316 µM, first compound 10 µM
[19] = second compound 1 µM, first compound 0.0316 µM
[20] = second compound 1 µM, first compound 0.1 µM
[21] = second compound 1 µM, first compound 0.316 µM
[22] = second compound 1 µM, first compound 1 µM
[23] = second compound 1 µM, first compound 3.16 µM
[24] = second compound 1 µM, first compound 10 µM
[25] = second compound 3.16 µM, first compound 0.0316 µM
[26] = second compound 3.16 µM, first compound 0.1 µM
[27] = second compound 3.16 µM, first compound 0.316 µM
[28] = second compound 3.16 µM, first compound 1 µM
[29] = second compound 3.16 µM, first compound 3.16 µM
[30] = second compound 3.16 µM, first compound 10 µM
[31] = second compound 10 µM, first compound 0.0316 µM
[32] = second compound 10 µM, first compound 0.1 µM
[33] = second compound 10 µM, first compound 0.316 µM
[34] = second compound 10 µM, first compound 1 µM
[35] = second compound 10 µM, first compound 3.16 µM
[36] = second compound 10 µM, first compound 10 µM
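Also: spheroids exposed to drugs for seven days before readout.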
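For viability, T/C in this document: percent viability relative to DMSO vehicle control taken as 100%.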

COc1ccc([C@@H](O)c2cc(-c3ncnc4cc(N5CCOCC5)ccc34)c(F)cc2Cl)nn1 + COC1C(OC(N)=O)C(O)C(Oc2ccc3c(O)c(NC(=O)c4ccc(O)c(CC=C(C)C)c4)c(=O)oc3c2C)OC1(C)C
7.3 µM: IC50 (second compound 0.316 µM)
9.89 µM: IC50 (second compound 0.1 µM)
inactive: viability, T/C [1] 89.6% | viability, T/C [2] 85.1% | viability, T/C [3] 88.3% | viability, T/C [4] 80% | viability, T/C [5] 81.1% | viability, T/C [6] 37.6% | viability, T/C [7] 81.4% | viability, T/C [8] 81.4% | viability, T/C [9] 91.5% | viability, T/C [10] 81.1% | viability, T/C [11] 91.1% | viability, T/C [12] 49.7% | viability, T/C [13] 92.6% | viability, T/C [14] 82.1% | viability, T/C [15] 79.1% | viability, T/C [16] 81.6% | viability, T/C [17] 75.1% | viability, T/C [18] 40.4% | viability, T/C [19] 74.2% | viability, T/C [20] 83.1% | viability, T/C [21] 83.9% | viability, T/C [22] 87.8% | viability, T/C [23] 82.1% | viability, T/C [24] 43.1% | viability, T/C [25] 81% | viability, T/C [26] 83.3% | viability, T/C [27] 96.7% | viability, T/C [28] 77.5% | viability, T/C [29] 78.5% | viability, T/C [30] 42.5% | viability, T/C [31] 80.3% | viability, T/C [32] 75.8% | viability, T/C [33] 82.6% | viability, T/C [34] 80.1% | viability, T/C [35] 95.8% | viability, T/C [36] 35.9%
7.09 µM: IC50 (second compound 10 µM)
7.85 µM: IC50 (second compound 3.16 µM)
8.15 µM: IC50 (second compound 1 µM)
7.23 µM: IC50 (second compound 0.0316 µM)

COc1cccc(OCCCN)c1-c1cc(Nc2cnc(C#N)cn2)n[nH]1 + COC1C(OC(N)=O)C(O)C(Oc2ccc3c(O)c(NC(=O)c4ccc(O)c(CC=C(C)C)c4)c(=O)oc3c2C)OC1(C)C
0.00353 µM: IC50 (second compound 0.1 µM)
0.00381 µM: IC50 (second compound 10 µM)
0.0035 µM: IC50 (second compound 0.316 µM)
0.00446 µM: IC50 (second compound 1 µM)
active: viability, T/C (second compound 0.0316 µM, first compound 0.01 µM) 3.94% | viability, T/C [1] 2.78% | viability, T/C [2] 2% | viability, T/C [3] 1.77% | viability, T/C [4] 1.34% | viability, T/C (second compound 0.1 µM, first compound 0.01 µM) 5.02% | viability, T/C [7] 2.47% | viability, T/C [8] 1.87% | viability, T/C [9] 2.26% | viability, T/C [10] 1.32% | viability, T/C (second compound 0.316 µM, first compound 0.01 µM) 4.98% | viability, T/C [13] 2.58% | viability, T/C [14] 1.9% | viability, T/C [15] 1.7% | viability, T/C [16] 0.97% | viability, T/C (second compound 1 µM, first compound 0.01 µM) 5.09% | viability, T/C [19] 1.91% | viability, T/C [20] 2% | viability, T/C [21] 1.74% | viability, T/C [22] 1.47% | viability, T/C (second compound 3.16 µM, first compound 0.01 µM) 5.31% | viability, T/C [25] 2.5% | viability, T/C [26] 2.18% | viability, T/C [27] 1.81% | viability, T/C [28] 1.54% | viability, T/C (second compound 10 µM, first compound 0.01 µM) 4.41% | viability, T/C [31] 2.84% | viability, T/C [32] 2.3% | viability, T/C [33] 3.07% | viability, T/C [34] 1.39%
0.00443 µM: IC50 (second compound 0.0316 µM)
inactive: viability, T/C (second compound 0.0316 µM, first compound 0.00316 µM) 69.1% | viability, T/C (second compound 0.1 µM, first compound 0.00316 µM) 54.7% | viability, T/C (second compound 0.316 µM, first compound 0.00316 µM) 54.3% | viability, T/C (second compound 1 µM, first compound 0.00316 µM) 69.2% | viability, T/C (second compound 3.16 µM, first compound 0.00316 µM) 57.9% | viability, T/C (second compound 10 µM, first compound 0.00316 µM) 58.8%
0.00376 µM: IC50 (second compound 3.16 µM)

O=C(c1cc(Cc2n[nH]c(=O)c3ccccc23)ccc1F)N1CCN(C(=O)C2CC2)CC1 + COC1C(OC(N)=O)C(O)C(Oc2ccc3c(O)c(NC(=O)c4ccc(O)c(CC=C(C)C)c4)c(=O)oc3c2C)OC1(C)C
7.63 µM: IC50 (second compound 1 µM)
inactive: viability, T/C [1] 87.3% | viability, T/C [2] 80.7% | viability, T/C [3] 88.5% | viability, T/C [4] 82.4% | viability, T/C [5] 71.2% | viability, T/C [6] 38.2% | viability, T/C [7] 92.5% | viability, T/C [8] 76.6% | viability, T/C [9] 86.9% | viability, T/C [10] 81.4% | viability, T/C [11] 88.1% | viability, T/C [12] 48.9% | viability, T/C [13] 82.4% | viability, T/C [14] 91.8% | viability, T/C [15] 88.1% | viability, T/C [16] 85.8% | viability, T/C [17] 74.8% | viability, T/C [18] 44.7% | viability, T/C [19] 85.1% | viability, T/C [20] 80% | viability, T/C [21] 78.3% | viability, T/C [22] 84.4% | viability, T/C [23] 72.2% | viability, T/C [24] 42.8% | viability, T/C [25] 80.2% | viability, T/C [26] 82.8% | viability, T/C [27] 76.5% | viability, T/C [28] 73.2% | viability, T/C [29] 73.3% | viability, T/C [30] 48% | viability, T/C [31] 70.5% | viability, T/C [32] 78.8% | viability, T/C [33] 74.1% | viability, T/C [34] 72.7% | viability, T/C [35] 73.5% | viability, T/C [36] 48.8%
8.28 µM: IC50 (second compound 0.316 µM)
9.44 µM: IC50 (second compound 10 µM)
9.68 µM: IC50 (second compound 0.1 µM)
6.65 µM: IC50 (second compound 0.0316 µM)
9.21 µM: IC50 (second compound 3.16 µM)
